Experimental data: the supplement of paper PMC9780213

What was measured:
Details in all cases: treatment time: 24 h
U2OS-LMNB1-TUBA1B-ACTB = assay: cell count relative to DMSO control (panel C1, DRAQ5/ER stain) (fraction of control); higher = more cells (less toxicity)
Experimental: (§1)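 U2OS-derived cells in 384-well plates were treated for 24 h with a 7-point 2-fold dilution series (top dose 20 µM for most compounds; final max DMSO 1%), then fixed, stained in four marker panels and imaged on a Cellomics ArrayScan. Cell count per treatment (three replicate plates merged) is given as a fraction of DMSO control. Panel A used parental U2OS, panel B U2OS-mOrange2-Peroxisome, panel C1 U2OS-LMNB1-TUBA1B-ACTB (DRAQ5 nuclei).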

U2OS-mOrange2-Peroxisome = assay: cell count relative to DMSO control (panel B, lysosome/peroxisome/lipid stain) (fraction of control); higher = more cells (less toxicity)
Experimental: as §1

U2OS = assay: cell count relative to DMSO control (panel A, nuclei/RNA/PMG/mitochondria stain) (fraction of control); higher = more cells (less toxicity)
Experimental: as §1

Structure (SMILES) | cell count (U2OS-LMNB1-TUBA1B-ACTB; 0.07812 µM) | cell count (U2OS-LMNB1-TUBA1B-ACTB; 0.15625 µM) | cell count (U2OS-LMNB1-TUBA1B-ACTB; 0.3125 µM) | cell count (U2OS-LMNB1-TUBA1B-ACTB; 0.625 µM) | cell count (U2OS-LMNB1-TUBA1B-ACTB; 1.25 µM) | cell count (U2OS-LMNB1-TUBA1B-ACTB; 2.5 µM) | cell count (U2OS-LMNB1-TUBA1B-ACTB; 5 µM) | cell count (U2OS-mOrange2-Peroxisome; 0.07812 µM) | cell count (U2OS-mOrange2-Peroxisome; 0.15625 µM) | cell count (U2OS-mOrange2-Peroxisome; 0.3125 µM) | cell count (U2OS-mOrange2-Peroxisome; 0.625 µM) | cell count (U2OS-mOrange2-Peroxisome; 1.25 µM) | cell count (U2OS-mOrange2-Peroxisome; 2.5 µM) | cell count (U2OS-mOrange2-Peroxisome; 5 µM) | cell count (U2OS; 0.07812 µM) | cell count (U2OS; 0.15625 µM) | cell count (U2OS; 0.3125 µM) | cell count (U2OS; 0.625 µM) | cell count (U2OS; 1.25 µM) | cell count (U2OS; 2.5 µM) | cell count (U2OS; 5 µM) | cell count (U2OS-LMNB1-TUBA1B-ACTB; 10 µM) | cell count (U2OS-LMNB1-TUBA1B-ACTB; 20 µM) | cell count (U2OS-mOrange2-Peroxisome; 10 µM) | cell count (U2OS-mOrange2-Peroxisome; 20 µM) | cell count (U2OS; 10 µM) | cell count (U2OS; 20 µM)
C=CCNC1=C2C[C@@H](C)C[C@H](OC)[C@H](O)[C@@H](C)/C=C(\C)[C@H](OC(N)=O)[C@@H](OC)/C=C\C=C(/C)C(=O)NC(=CC1=O)C2=O [tanespimycin] | 1.06 | 1.03 | 1.06 | 0.956 | 0.938 | 0.501 | 0.0736 | 1.48 | 0.803 | 0.767 | 0.7 | 0.405 | 0.144 | 0.148 | 1 | 0.976 | 0.929 | 0.901 | 0.686 | 0.307 | 0.0406 | – | – | – | – | – | –
COc1ccc2cc1Oc1ccc(cc1)C[C@H]1c3cc(c(OC)cc3CCN1C)Oc1c(OC)c(OC)cc3c1[C@H](C2)N(C)CC3 [tetrandrine] | – | – | 1.04 | 1.06 | 1.06 | 1.05 | 0.976 | – | – | 0.838 | 0.86 | 0.958 | 0.976 | 0.895 | – | – | 0.949 | 1 | 1.01 | 0.97 | 0.905 | 0.796 | 0.639 | 0.827 | 0.488 | 0.781 | 0.631
Cc1c(Cl)cccc1Nc1ccccc1C(=O)O [tolfenamic-acid] | – | – | 1.01 | 1.1 | 1.11 | 1.07 | 0.998 | – | – | 0.753 | 0.959 | 0.883 | 0.953 | 0.933 | – | – | 0.992 | 1.06 | 1.03 | 1.1 | 1.04 | 1.12 | 1.03 | 1.01 | 1.22 | 1.03 | 0.963
CC(C=CC(=O)NO)=C[C@@H](C)C(=O)c1ccc(N(C)C)cc1 [trichostatin-a] | – | – | 1.04 | 0.942 | 0.773 | 0.619 | 0.639 | – | – | 0.582 | 0.501 | 0.516 | 0.585 | 0.605 | – | – | 0.888 | 0.737 | 0.497 | 0.466 | 0.427 | 0.517 | 0.314 | 0.228 | 0.0857 | 0.258 | 0.142
CC(=O)N[C@H]1[C@@H](O[C@@H]2O[C@H](CC(O)[C@H]3O[C@@H](n4ccc(=O)[nH]c4=O)[C@H](O)[C@@H]3O)[C@H](O)[C@H](O)[C@H]2NC(=O)/C=C/CC(C)C)O[C@H](CO)[C@@H](N)[C@@H]1O (some centres not stated) [tunicamycin] | 0.934 | 0.611 | 0.555 | 0.626 | 0.596 | 0.552 | 0.491 | 0.498 | 0.477 | 0.558 | 0.528 | 0.587 | 0.448 | 0.517 | 0.979 | 0.654 | 0.663 | 0.582 | 0.61 | 0.535 | 0.535 | – | – | – | – | – | –
CC[C@]1(O)C[C@H]2CN(CCc3c([nH]c4ccccc34)[C@@](C(=O)OC)(c3cc4c(cc3OC)N(C=O)[C@H]3[C@@](O)(C(=O)OC)[C@H](OC(C)=O)[C@]5(CC)C=CCN6CC[C@]43[C@@H]65)C2)C1 [vincristine] | – | – | 0.617 | 0.651 | 0.606 | 0.557 | 0.576 | – | – | 0.728 | 0.834 | 0.678 | 0.793 | 0.752 | – | – | 0.508 | 0.506 | 0.522 | 0.496 | 0.465 | 0.58 | 0.59 | 0.769 | 0.685 | 0.486 | 0.456
O=C(CCCCCCC(=O)Nc1ccccc1)NO [vorinostat] | – | – | 1.1 | 1.02 | 0.995 | 0.911 | 1.01 | – | – | 0.929 | 1.04 | 0.893 | 1.13 | 0.926 | – | – | 1.12 | 1.1 | 0.993 | 1.03 | 1.02 | 0.794 | 0.208 | 0.812 | 0.292 | 0.899 | 0.304
